Common to all, as to assay: Serum MIC, broth micro-dilution
Assay type in all cases: cell-based
(Broth dilution looks for growth in wells or tubes with falling amounts of substance.)

For experiment [1], the system named is Acinetobacter baumannii ATCC 17978. The conditions noted are these: Acinetobacter baumannii. The protocol:
(§1) In vitro antimicrobial activity of each compound was determined by measuring minimal inhibitor concentrations (MICs) using the broth micro-dilution technique as approved by the Clinical and Laboratory Standards Institute (CLSI) (Methods for Dilution Antimicrobial Susceptibility Tests for Bacteria that Grow Aerobically; Approved Standard—Eighth Edition. CLSI document M07-A8. Wayne, Pa.: Clinical and Laboratory Standards; 2009). Antibacterial activity was measure against Escherichia coli strain ATCC 25922 (E. coli), Klebsiella pneumoniae ATCC 700603 (K. pneumoniae), Acinetobacter baumannii ATCC 17978 (A. baumannii), and Pseudomonas aeruginosa PA01 (P. aeruginosa), each of which is representative of a clinically relevant Gram-negative species. Cells were inoculated onto plates of Mueller Hinton Agar and grown at 37° C. for 16-18 hours. Inocula suspensions were prepared by scraping cells into 1 mL of testing media (Mueller Hinton II cation adjusted Broth) and diluting to a final OD 600 nm of 0.01.
(§2) Test compounds were prepared in DMSO at a concentration of […]. The compounds were tested under several different dilution formats. In protocol 1, the compound stocks were diluted into testing media at a concentration of 64 μg/ml and serial 2-fold dilutions were made in the same media, in 96-well U bottom microtiter dishes, for a total of 10 compound concentrations. In protocol 2, the compound stocks were diluted into testing media at a concentration of 4 μg/mL and serial 2-fold dilutions were made in the same media, in 96-well U bottom microtiter dishes, for a total of 10 compound concentrations. In protocol 3, compound stocks were diluted into testing media at a concentration of 0.5 μg/mL, with serial 2-fold dilutions conducted as described above. In protocol 4, compound stocks were diluted into testing media at a concentration of 0.13 μg/mL, with serial 2-fold dilutions conducted as described above. Inocula suspensions were added to the 2-fold serial dilutions of test compounds to a final density of OD 600 nm of 0.0005 and incubated at 35° C. for 22 hours. […] To assess antimicrobial activity in the presence of plasma proteins, MICs were also determined in growth media supplemented with 50% serum. Bacterial inocula and test compound dilution plates were prepared using the same protocol as described above for the standard MICs assay, with the exception that a mixture of 50% v/v Mueller Hinton II cation adjusted Broth and 50% v/v mouse sterile filtered serum (Equitech-Bio) was used in place of 100% Mueller Hinton II cation adjusted Broth. The results are listed in Table 3 (MIC, IC50 values micromolar).

Experiment [2] concerns Escherichia coli strain ATCC 25922. The conditions noted are these: Escherichia coli, read-out: E. coli 25922 Serum MIC. How it is done: as §1, §2
Experiment [3] concerns Klebsiella pneumoniae ATCC 700603. As to conditions: Klebsiella pneumoniae. How it is done: as §1, §2
Experiment [4] relates to Pseudomonas aeruginosa PA01. The conditions noted are these: Pseudomonas aeruginosa, read-out: P. aeruginosa 01 Serum MIC. The protocol:
as §1, §2

The mark [5] stands for this setting: ATCC17978, 50% v/v mouse serum, compounds of Table 1, Table 7, read-out: A. baumanii 17978 Serum MIC.
The mark [6] stands for this setting: ATCC25922, 50% v/v mouse serum, compounds of Table 1, Table 7.
The mark [7] stands for this setting: ATCC700603, 50% v/v mouse serum, compounds of Table 1, Table 7, read-out: K. pneumoniae 700603 Serum MIC.
Where [8] appears, read: PA01, 50% v/v mouse serum, compounds of Table 1, Table 7.
Setting [9] is: ATCC17978, 50% v/v mouse serum in Mueller Hinton II cation adjusted Broth, 35° C., 22 hours, Table 4, read-out: A. baumanii 17978 Serum MIC.
Where [10] appears, read: ATCC17978, 50% v/v mouse serum in Mueller Hinton II cation adjusted Broth, 35° C., 22 hours, Table 5, read-out: Acinetobacter baumanii 17978 Serum MIC.
Where [11] appears, read: ATCC25922, 50% v/v mouse serum in Mueller Hinton II cation adjusted Broth, 35° C., 22 hours, Table 4.
Where [12] appears, read: ATCC700603, 50% v/v mouse serum in Mueller Hinton II cation adjusted Broth, 35° C., 22 hours, Table 4, read-out: K pneumoniae 700603 Serum MIC.
The mark [13] stands for this setting: PA01, 50% v/v mouse serum in Mueller Hinton II cation adjusted Broth, 35° C., 22 hours, Table 4.

≈ marks a conversion by molar mass, not a printed value. Where two headings read alike, the source gives them in different places. Where only a bound is given, the exact number is not on record here.

For `Cc1nc(-c2ccc(C(C)(C)C)cc2)nc(C)c1C(=O)N[C@@H](CCN)C(=O)N(C)[C@@H]1C(=O)N[C@@H](C)C(=O)N[C@H](C(=O)O)Cc2ccc(OCCN)c(c2)-c2cc1ccc2OCCN` (racemic) [Example 645], the MIC is 67 µM (≈ 58 µg/mL) in experiment [1] (setting [5]), 0.53 µM (≈ 0.459 µg/mL) in experiment [2] (setting [6]), 0.55 µM (≈ 0.476 µg/mL) in experiment [3] (setting [7]) and 67 µM (≈ 58 µg/mL) in experiment [4] (setting [8]).

`Cc1nc(-c2ccc(C(C)(C)C)cc2)nc(C)c1C(=O)N[C@@H](CCN)C(=O)N(C)[C@@H]1C(=O)N[C@@H](C)C(=O)N[C@H](C(=O)O)Cc2ccc(O)c(c2)-c2cc1ccc2OCCN` (racemic) [Example 646]: the MIC in experiment [1] (setting [5]) is 69 µM (≈ 56.8 µg/mL); in experiment [2] (setting [6]) it was 0.55 µM (≈ 0.453 µg/mL); in experiment [3] (setting [7]) it was 0.58 µM (≈ 0.477 µg/mL); in experiment [4] (setting [8]), 69 µM (≈ 56.8 µg/mL).

As for `Cc1nc(-c2ccc3c(c2)CCC3(C)C)nc(C)c1C(=O)N[C@@H](CCN)C(=O)N(C)[C@@H]1C(=O)N[C@@H](C)C(=O)N[C@H](C(=O)O)Cc2ccc(OCCN)c(c2)-c2cc1ccc2OCCN` (racemic) [Example 647], the MIC in experiment [1] (setting [5]) is 64 µM (≈ 56.2 µg/mL); in experiment [2] (setting [6]), 0.5 µM (≈ 0.439 µg/mL); in experiment [3] (setting [7]), 1 µM (≈ 0.878 µg/mL); in experiment [4] (setting [8]), 64 µM (≈ 56.2 µg/mL).

`CCCCCOc1ccc(-c2nc(C)c(C(=O)N[C@@H](CCN)C(=O)N(C)[C@@H]3C(=O)N[C@@H](C)C(=O)N[C@H](C(=O)O)Cc4ccc(O)c(c4)-c4cc3ccc4OCCN)c(C)n2)cc1` (racemic) [Example 648]: the MIC in experiment [1] (setting [5]) is more than 96 µM; in experiment [2] (setting [6]), 0.6 µM (≈ 0.512 µg/mL); in experiment [3] (setting [7]), 1.3 µM (≈ 1.11 µg/mL); in experiment [4] (setting [8]), more than 128 µM.

Turning to `Cc1nc(-c2ccc(C(C)(C)C)cc2)nc(C)c1C(=O)N[C@@H](CCN)C(=O)N(C)[C@@H]1C(=O)N[C@@H](C)C(=O)N[C@H](C(=O)O)Cc2ccc(OCCN)c(c2)-c2cc1cc1[nH]c(=O)oc21` (racemic) [Example 649], the MIC came out at 64 µM (≈ 55.3 µg/mL) in experiment [1] (setting [5]), 1 µM (≈ 0.864 µg/mL) in experiment [2] (setting [6]), 2 µM (≈ 1.73 µg/mL) in experiment [3] (setting [7]) and 64 µM (≈ 55.3 µg/mL) in experiment [4] (setting [8]).

As for `C[C@@H]1NC(=O)[C@@H](N(C)C(=O)[C@H](CNS(N)(=O)=O)NC(=O)c2cnn(-c3ccc(C(C)(C)C)cc3)c(=O)c2)c2cc(OC[C@H](O)CN)c(O)c(c2)-c2cc(ccc2OC[C@H](O)CN)C[C@@H](C(=O)O)NC1=O` [Example 1, (8S,11S,14S)-18-hydroxy-11-methyl-14-[methyl-[(2S)-2-[[1-(4-tert-butylphenyl)-6-oxo-pyridazine-4-carbonyl]amino]-3-(sulfamoylamino)-propanoyl]amino]-10,13-dioxo-3,17-bis[(2R)-3-amino-2-hydroxy-propoxy]-9,12-diazatricyclo-[13.3.1.12,6]icosa-1(18),2(20),3,5,15(19), 16-hexaene-8-carboxylic acid], the MIC in experiment [1] (ATCC17978, 22 h, read-out: A. baumanii 17978 Serum MIC) worked out at 24 µM (≈ 23.9 µg/mL); in experiment [1] (ATCC17978, 22 h, read-out: Acinetobacter baumanii 17978 Serum MIC), 24 µM (≈ 23.9 µg/mL); in experiment [2] (ATCC25922, 22 h) it was 3 µM (≈ 2.99 µg/mL); in experiment [3] (ATCC700603, 22 h, read-out: K pneumoniae 700603 Serum MIC) it was 1.5 µM (≈ 1.49 µg/mL); in experiment [4] (PA01, 22 h) it was 16 µM (≈ 15.9 µg/mL).

Regarding `Cc1nc(-c2ccc(OCCC(C)(C)C)cc2)nc(N)c1C(=O)N[C@@H](CNS(N)(=O)=O)C(=O)N(C)[C@@H]1C(=O)N[C@@H](C)C(=O)N[C@H](C(=O)O)Cc2ccc(OC[C@H](O)CN)c(c2)-c2cc1cc(OC[C@H](O)CN)c2O` [Example 3, (8S,11S,14S)-18-hydroxy-11-methyl-14-[methyl-[(2S)-2-[[4-amino-2-[4-(3,3-dimethylbutoxy)-phenyl]-6-methyl-pyrimidine-5-carbonyl]amino]-3-(sulfamoylamino)-propanoyl]amino]-10,13-dioxo-3,17-bis[(2R)-3-amino-2-hydroxy-propoxy]-9,12-diazatricyclo-[13.3.1.12,6]icosa-1(18),2(20),3,5,15(19), 16-hexaene-8-carboxylic acid], the MIC in experiment [1] (setting [9]) came out at 12 µM (≈ 12.6 µg/mL); in experiment [1] (setting [10]) it was 12 µM (≈ 12.6 µg/mL); in experiment [2] (setting [11]), 0.5 µM (≈ 0.526 µg/mL); in experiment [3] (setting [12]), 0.5 µM (≈ 0.526 µg/mL); in experiment [4] (setting [13]), 4 µM (≈ 4.21 µg/mL).

Turning to `C[C@@H]1NC(=O)[C@@H](N(C)C(=O)[C@H](CNS(N)(=O)=O)NC(=O)c2cnn(-c3ccc(OCCC(C)(C)C)cc3)c(=O)c2)c2cc(OC[C@H](O)CN)c(O)c(c2)-c2cc(ccc2OC[C@H](O)CN)C[C@@H](C(=O)O)NC1=O` [Example 4, (8S,11S,14S)-18-hydroxy-11-methyl-14-[methyl-[(2S)-2-[[1-[4-(3,3-dimethyl-butoxy)phenyl]-6-oxo-pyridazine-4-carbonyl]amino]-3-(sulfamoylamino)-propanoyl]amino]-10,13-dioxo-3,17-bis[(2R)-3-amino-2-hydroxy-propoxy]-9,12-diazatricyclo-[13.3.1.12,6]icosa-1(18),2(20),3,5,15(19), 16-hexaene-8-carboxylic acid], the MIC stood at 24 µM (≈ 24.9 µg/mL) in experiment [1] (setting [9]); 24 µM (≈ 24.9 µg/mL) in experiment [1] (setting [10]); 1 µM (≈ 1.04 µg/mL) in experiment [2] (setting [11]); 0.75 µM (≈ 0.779 µg/mL) in experiment [3] (setting [12]); 12 µM (≈ 12.5 µg/mL) in experiment [4] (setting [13]).

Take `Cc1nc(-c2ccc(C3(C)CC3)cc2)ncc1C(=O)N[C@@H](CNS(N)(=O)=O)C(=O)N(C)[C@@H]1C(=O)N[C@@H](C)C(=O)N[C@H](C(=O)O)Cc2ccc(OC[C@H](O)CN)c(c2)-c2cc1cc(OC[C@H](O)CN)c2O` [Example 5, (8S,11S,14S)-18-hydroxy-11-methyl-14-[methyl-[(2S)-2-[[4-methyl-2-[4-(1-methylcyclopropyl)-phenyl]pyrimidine-5-carbonyl]amino]-3-(sulfamoylamino)-propanoyl]amino]-10,13-dioxo-3,17-bis[(2R)-3-amino-2-hydroxy-propoxy]-9,12-diazatricyclo-[13.3.1.12,6]icosa-1(18),2(20),3,5,15(19), 16-hexaene-8-carboxylic acid]: the MIC came to 12 µM (≈ 11.9 µg/mL) in experiment [1] (setting [9]); 12 µM (≈ 11.9 µg/mL) in experiment [1] (setting [10]); 0.63 µM (≈ 0.624 µg/mL) in experiment [2] (setting [11]); 0.88 µM (≈ 0.872 µg/mL) in experiment [3] (setting [12]); 20 µM (≈ 19.8 µg/mL) in experiment [4] (setting [13]).

With `Cc1nc(-c2ccc(C3(C)CC3)cc2)nc(N)c1C(=O)N[C@@H](CNS(N)(=O)=O)C(=O)N(C)[C@@H]1C(=O)N[C@@H](C)C(=O)N[C@H](C(=O)O)Cc2ccc(OC[C@H](O)CN)c(c2)-c2cc1cc(OC[C@H](O)CN)c2O` [Example 6, (8S,11S,14S)-18-hydroxy-11-methyl-14-[methyl-[(2S)-2-[[4-amino-6-methyl-2-[4-(1-methylcyclo-propyl)phenyl]-pyrimidine-5-carbonyl]amino]-3-(sulfamoylamino)-propanoyl]amino]-10,13-dioxo-3,17-bis[(2R)-3-amino-2-hydroxy-propoxy]-9,12-diazatricyclo-[13.3.1.12,6]icosa-1(18),2(20),3,5,15(19), 16-hexaene-8-carboxylic acid], the MIC in experiment [1] (setting [9]) was determined as 16 µM (≈ 16.1 µg/mL); in experiment [1] (setting [10]), 16 µM (≈ 16.1 µg/mL); in experiment [2] (setting [11]) it was 0.75 µM (≈ 0.755 µg/mL); in experiment [3] (setting [12]), 0.75 µM (≈ 0.755 µg/mL); in experiment [4] (setting [13]), 16 µM (≈ 16.1 µg/mL).

Usually MIC stands for the smallest concentration in the dilution series that meets the test's criterion for growth inhibition.
